Reference: patent US20240059700A1, “NOVEL DIACYLGLYCERIDE O-ACYLTRANSFERASE 2 INHIBITORS” (Merck Sharp & Dohme LLC, priority 2020, published 2024)

Molecular target: human DGAT2 (hDGAT2) (Homo sapiens (Human), UniProt Q96PD7)
Assay: DGAT2 Enzymatic Activity Assay
Format: biochemical
Details: membrane prep of Sf-9 insect cells expressing hDGAT2; 13C18-triolein product by LC/MS/MS
Protocol: Sf-9 insect cells were maintained in Grace's insect cell culture medium with 10% heated-inactivated fetal bovine serum, 1% Pluronic F-68 and 0.14 μg/ml Kanamycine sulfate at 27° C. in a shaker incubator. After infection with untagged baculovirus expressing human DGAT2 (hDGAT2) at multiplicity of infection (MOI) 3 for 48 hours, cells were harvested. Cell pellets were suspended in buffer containing 10 mM Tris-HCl pH 7.5, 1 mM EDTA, 250 mM sucrose and Complete Protease Inhibitor Cocktail (Sigma Aldrich), and sonicated on ice. Cell debris were removed by centrifugation at 2000×g for 15 minutes. Membrane fractions were isolated by ultracentrifugation (100,000×g), resuspended in the same buffer, and frozen (−80° C.) for later use. The protein concentration was determined with the Pierce™ BCA Protein Assay Kit (Thermo Fisher Scientific). Expression of protein levels was analyzed by immunoblotting with rabbit anti-DGAT2 antibody (Abcam, ab102831) and donkey anti-rabbit IgG H&L Alexa Fluor® 647 (Abcam, ab150075) followed by detection using Typhoon FLA9000 (GE Healthcare).
LC/MS/MS analyses were performed using Thermal Fisher's LX4-TSQ Vantage system. This system consists of an Agilent binary high-performance liquid chromatography (HPLC) pumps and a TSQ Vantage triple quadrupole MS/MS instrument. For each sample, 2 μL samples from the top organic layer of in-plate liquid-liquid extraction were injected onto a Thermo Betabasic C4 column (2.1 mm×20 mm, 5 μm particle size). The samples were then eluted using the following conditions; mobile phase: Isopropanol: acetonitrile/10 mM ammonium formate=50/35/15 (v/v/v), flow rate: 0.8 mL/min, temperature: 25° C. Data was acquired in positive mode using a heated electrospray ionization (HESI) interface. The operational parameters for the TSQ Vantage MS/MS instrument were a spray voltage of 3000 V, capillary temperature of 280° C., vaporizer temperature 400° C., sheath gas 45 arbitrary unit, Aux gas 10 arbitrary units, S-lens 165 and collision gas 1.0 mTorr. […] (SRM) chromatograms of ^13C18-triolein (Q1: 920.8>Q3:621.3) and internal standard ^13C21-triolein (Q1: 923.8>Q3:617.3) were collected for 33 sec. The peak area was integrated by Xcalibur Quan software. The ratio between the ^13C18 triolein generated in the reaction and spiked in internal standard ^13C21-triolein was used to generate percentage inhibition and IC50 values. Compound percentage inhibition was calculated by the following formula: Inhibition %=1−[(compound response−low control)/(high control−low control)]×100%. Potent compounds were titrated and IC50 were calculated by 4 parameter sigmoidal curve fitting formula.
DGAT2 activity was determined by measuring the amount of enzymatic product ^13C18-triolein (^13C-1,2,3-Tri(cis-9-octadecenoyl)glycerol) using the membrane prep mentioned above. The assay was carried out in ABgene 384-well assay plates in a final volume of 25 μL at rt. The assay mixture contained the following: assay buffer (100 mM Tris·Cl, pH 7.0, 20 mM MgCl2, 5% ethanol), 25 μM of diolein, 5 μM of ^13C oleoyl-CoA and 8 ng/μL of DGAT2 membrane.

human DGAT2 (hDGAT2), sequence (Q96PD7 whole entry): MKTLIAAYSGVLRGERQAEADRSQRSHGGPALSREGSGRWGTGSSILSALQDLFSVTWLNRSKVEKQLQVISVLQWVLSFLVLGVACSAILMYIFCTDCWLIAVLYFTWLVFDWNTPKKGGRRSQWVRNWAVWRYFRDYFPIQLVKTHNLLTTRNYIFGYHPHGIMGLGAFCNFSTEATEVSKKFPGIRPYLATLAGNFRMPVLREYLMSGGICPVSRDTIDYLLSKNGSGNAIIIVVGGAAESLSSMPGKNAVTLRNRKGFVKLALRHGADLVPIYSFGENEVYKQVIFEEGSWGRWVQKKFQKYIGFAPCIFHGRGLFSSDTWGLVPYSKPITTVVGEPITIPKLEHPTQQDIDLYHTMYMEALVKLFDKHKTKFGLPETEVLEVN

Compound	IC50
CC(C)n1nc(-c2cc(OC3CCC3)ccc2F)c2ncc(C(=O)NC3(C)CS(=O)(=O)C3)cc21 [Example 109, 3-(5-cyclobutoxy-2-fluorophenyl)-1-isopropyl-N-(3-methyl-1,1-dioxidothietan-3-yl)-1H-pyrazolo[4,3-b]pyridine-6-carboxamide]	11 nM
CC(C)n1nc(-c2cccc(OC(F)F)c2)c2ncc(C(=O)N[C@@]3(C)CCS(=O)(=O)C3)cc21 [Example 31, (S)-3-(3-(difluoromethoxy)phenyl)-1-isopropyl-N-(3-methyl-1,1-dioxidotetrahydrothiophen-3-yl)-1H-pyrazolo[4,3-b]pyridine-6-carboxamide]	7.2 nM
CC(C)(NC(=O)c1cnc2c(-c3cccc(OC(F)F)c3)cn(-c3ncc(F)cn3)c2c1)C(N)=O [Example 18, N-(1-amino-2-methyl-1-oxopropan-2-yl)-3-(3-(difluoromethoxy)phenyl)-1-(5-fluoropyrimidin-2-yl)-1H-pyrrolo[3,2-b]pyridine-6-carboxamide]	3420 nM
CC1(NC(=O)c2cnc3c(-c4cccc(OC(F)F)c4)nn(C4CC4)c3c2)CS(=O)(=O)C1 [Example 30, 1-cyclopropyl-3-(3-(difluoromethoxy)phenyl)-N-(3-methyl-1,1-dioxidothietan-3-yl)-1H-pyrazolo[4,3-b]pyridine-6-carboxamide]	99 nM
CC(C)n1nc(-c2cc(OC(F)F)ccc2F)c2cnc(C(=O)NC3(C)CS(=O)(=O)C3)cc21 [Example 36, 3-(5-(difluoromethoxy)-2-fluorophenyl)-1-isopropyl-N-(3-methyl-1,1-dioxidothietan-3-yl)-1H-pyrazolo[4,3-c]pyridine-6-carboxamide]	1.7 nM
C[C@]1(NC(=O)c2cnc3c(-c4cccc(OC(F)F)c4)nn(-c4ncc(F)cn4)c3c2)CCS(=O)(=O)C1 [Example 3, (S)-3-(3-(difluoromethoxy)phenyl)-1-(5-fluoropyrimidin-2-yl)-N-(3-methyl-1,1-dioxidotetrahydrothiophen-3-yl)-1H-pyrazolo[4,3-b]pyridine-6-carboxamide]	57 nM
CC(C)n1nc(-c2cc(OC(F)F)ccc2F)c2ncc(C(=O)NC(C)(C)CN(C)C)cc21 [Example 55, 3-(5-(difluoromethoxy)-2-fluorophenyl)-N-(1-(dimethylamino)-2-methylpropan-2-yl)-1-isopropyl-1H-pyrazolo[4,3-b]pyridine-6-carboxamide]	212 nM
C[C@]1(NC(=O)c2cc3c(cn2)c(-c2cccc(OC(F)F)c2)cn3-c2ccc(F)cc2)CCS(=O)(=O)C1 [Example 15, (S)-3-(3-(difluoromethoxy)phenyl)-1-(4-fluorophenyl)-N-(3-methyl-1,1-dioxidotetrahydrothiophen-3-yl)-1H-pyrrolo[3,2-c]pyridine-6-carboxamide]	23 nM
CC(C)Cn1nc(-c2cccc(OC(F)F)c2)c2ncc(C(=O)NC3(C)CS(=O)(=O)C3)cc21 [Example 28, 3-(3-(difluoromethoxy)phenyl)-1-isobutyl-N-(3-methyl-1,1-dioxidothietan-3-yl)-1H-pyrazolo[4,3-b]pyridine-6-carboxamide]	29 nM
CC(C)NC(=O)c1cnc2c(-c3cccc(OC(F)F)c3)cn(-c3ncc(F)cn3)c2c1 [Example 16, 3-(3-(difluoromethoxy)phenyl)-1-(5-fluoropyrirnidin-2-yl)-N-isopropyl-1H-pyrrolo[3,2-b]pyridine-6-carboxamide]	209 nM
CC(C)n1nc(-c2cccc(OC(F)F)c2)c2ncc(C(=O)NC3(C(C)O)CCOC3)cc21 (single isomer, unassigned) [Example 50d, 3-(3-(difluoromethoxy)phenyl)-N-(3-(1-hydroxyethyl)tetrahydrofuran-3-yl)-1-isopropyl-1H-pyrazolo[4,3-b]pyridine-6-carboxamide]	150 nM
CCN1CCN(C(=O)c2cnc3c(-c4cncc(OC(F)F)c4)nn(C(C)C)c3c2)CC1 [Example 58, (3-(5-(difluoromethoxy)pyridin-3-yl)-1-isopropyl-1H-pyrazolo[4,3-b]pyridin-6-yl)(4-ethylpiperazin-1-yl)methanone]	> 1000 nM
CC(CS(C)(=O)=O)NC(=O)c1cnc2c(-c3cccc(OC(F)F)c3)cn(-c3ncc(F)cn3)c2c1 (stereo not drawn) [Example 17, 3-(3-(difluoromethoxy)phenyl)-1-(5-fluoropyrimidin-2-yl)-N-(1-(methylsulfonyl)propan-2-yl)-1H-pyrrolo[3,2-b]pyridine-6-carboxamide]	72 nM

Next, values leading:

IC50	Compound
95 nM	CC1(NC(=O)c2cnc3c(-c4cccc(OC(F)F)c4)nn(C4CCOCC4C(F)(F)F)c3c2)CS(=O)(=O)C1 (stereo not drawn) [Example 71, 3-(3-(difluoromethoxy)phenyl)-N-(3-methyl-1,1-dioxidothietan-3-yl)-1-(3-(trifluoromethyl)tetrahydro-2H-pyran-4-yl)-1H-pyrazolo[4,3-b]pyridine-6-carboxamide]
2280 nM	CC(C)n1nc(-c2cccc(C3(C(F)(F)F)CC3)c2)c2ncc(C(=O)NC3(C)CS(=O)(=O)C3)cc21 [Example 107, 1-isopropyl-N-(3-methyl-1,1-dioxidothietan-3-yl)-3-(3-(1-(trifluoromethyl)cyclopropyl)phenyl)-1H-pyrazolo[4,3-b]pyridine-6-carboxamide]
690 nM	CC(C)n1nc(-c2cc(OC(F)F)ccn2)c2ncc(C(=O)NC3(C)CS(=O)(=O)C3)cc21 [Example 98, 3-[4-(difluoromethoxy)-2-pyridyl]-1-isopropyl-N-(3-methyl-1,1-dioxo-thietan-3-yl)pyrazolo[4,3-b]pyridine-6-carboxamide]
8.3 nM	CC(C)n1nc(-c2cc(OCC(F)F)ncc2F)c2ncc(C(=O)NC3(C)CS(=O)(=O)C3)cc21 [Example 121, 3-(2-(2,2-difluoroethoxy)-5-fluoropyridin-4-yl)-1-isopropyl-N-(3-methyl-1,1-dioxidothietan-3-yl)-1H-pyrazolo[4,3-b]pyridine-6-carboxamide]
24 nM	CC1(NC(=O)c2cnc3c(-c4cccc(OC(F)F)c4)nn(C4CC(F)(F)C4)c3c2)CS(=O)(=O)C1 [Example 86, 1-(3,3-difluorocyclobutyl)-3-(3-(difluoromethoxy)phenyl)-N-(3-methyl-1,1-dioxidothietan-3-yl)-1H-pyrazolo[4,3-b]pyridine-6-carboxamide]
10000 nM	C[C@]1(NC(=O)c2cc3c(cn2)c(-c2cncc(OC(F)F)c2)nn3C2CCOCC2)CCS(=O)(=O)C1 [Example 79, (S)-3-(5-(difluoromethoxy)pyridin-3-yl)-N-(3-methyl-1,1-dioxidotetrahydrothiophen-3-yl)-1-(tetrahydro-2H-pyran-4-yl)-1H-pyrazolo[4,3-c]pyridine-6-carboxamide]
2 nM	CC(C)n1nc(-c2cccc(OC(F)F)c2)c2c(C#N)cc(C(=O)NC3(C)CS(=O)(=O)C3)cc21 [Example 91, 4-cyano-3-(3-(difluoromethoxy)phenyl)-1-isopropyl-N-(3-methyl-1,1-dioxidothietan-3-yl)-1H-indazole-6-carboxamide]
64 nM	CC(C)n1nc(-c2cccc(OC(F)F)c2)c2ncc(C(=O)NC3(CO)CCOCC3)cc21 [Example 74, 3-(3-(difluoromethoxy)phenyl)-N-(4-(hydroxymethyl)tetrahydro-2H-pyran-4-yl)-1-isopropyl-1H-pyrazolo[4,3-b]pyridine-6-carboxamide]
5430 nM	Cn1nccc1-c1cn(C2CCOCC2)c2cc(C(=O)N[C@@]3(C)CCS(=O)(=O)C3)c(F)cc12 [Example 83]
20 nM	CC(C)n1nc(-c2cncc(OC(F)(F)F)c2)c2ncc(C(=O)NC3(C)CS(=O)(=O)C3)cc21 [Example 114, 1-isopropyl-N-(3-methyl-1,1-dioxidothietan-3-yl)-3-(5-(trifluoromethoxy)pyridin-3-yl)-1H-pyrazolo[4,3-b]pyridine-6-carboxamide]
85 nM	CC(C)n1nc(-c2cncc(C3CC3)c2)c2ncc(C(=O)NC3(C)CS(=O)(=O)C3)cc21 [Example 101, 3-(5-cyclopropyl-3-pyridyl)-1-isopropyl-N-(3-methyl-1,1-dioxo-thietan-3-yl)pyrazolo[4,3-b]pyridine-6-carboxamide]
